From patent US11945814B2, “Salt form” (CRT Pioneer Fund LP, priority 2018, dated 2024)
One block for each compound: values may come before it.

Key:
[1] = Solubility of the diphosphate salt in a range of dissolution media; type: physicochemical; conditions: thermodynamic from solid, 37° C., minimum of 21 hours
[2] = Stability assessment after storage at 40° C. and 75% RH for 3 weeks; type: physicochemical
Protocol: FIG. 3 compares the XRPD of the diphosphate salt (Form A) before (bottom) and after (top) storage at 40° C. and 75% RH.

[3] = Dynamic vapour sorption (DVS) assessment; type: physicochemical
Protocol: The ability of samples studied to absorb moisture (or not) over a set of well-determined humidity ranges was assessed.
Sorption isotherms were obtained using a Hiden Isochema moisture sorption analyser (model IGAsorp), controlled by IGAsorp Systems Software V6.50.48. The sample was maintained at a constant temperature (25° C.) by the instrument controls. The humidity was controlled by mixing streams of dry and wet nitrogen, with a total flow of 250 ml·min^−1. The instrument was verified for relative humidity content by measuring three calibrated Rotronic salt solutions (10-50-88%). The weight change of the sample was monitored as a function of humidity by a microbalance (accuracy+/−0.005 mg). A defined amount of sample (typically 10-15 mg powder) was placed in a tared mesh stainless steel basket under ambient conditions. A full experimental cycle typically consisted of three scans (desorption, sorption, and desorption) at a constant temperature (25° C.) and 10% RH intervals over a 0-90% range (60 minutes for each humidity level).
Solids are then held post cycle at 0% RH for 2-3 hours and tested by XRPD and the remainder held at 90% RH for 2-3 hours and re-tested by XRPD.

[4] = Solubility of the diphosphate salt in a range of dissolution media; type: physicochemical
Protocol: The pH of the aqueous mixtures were also measured.

MPS1 kinase = target: T1, MPS1 kinase (Homo sapiens, UniProt P33981); conditions: cited from earlier work
T1 sequence (P33981 1-857): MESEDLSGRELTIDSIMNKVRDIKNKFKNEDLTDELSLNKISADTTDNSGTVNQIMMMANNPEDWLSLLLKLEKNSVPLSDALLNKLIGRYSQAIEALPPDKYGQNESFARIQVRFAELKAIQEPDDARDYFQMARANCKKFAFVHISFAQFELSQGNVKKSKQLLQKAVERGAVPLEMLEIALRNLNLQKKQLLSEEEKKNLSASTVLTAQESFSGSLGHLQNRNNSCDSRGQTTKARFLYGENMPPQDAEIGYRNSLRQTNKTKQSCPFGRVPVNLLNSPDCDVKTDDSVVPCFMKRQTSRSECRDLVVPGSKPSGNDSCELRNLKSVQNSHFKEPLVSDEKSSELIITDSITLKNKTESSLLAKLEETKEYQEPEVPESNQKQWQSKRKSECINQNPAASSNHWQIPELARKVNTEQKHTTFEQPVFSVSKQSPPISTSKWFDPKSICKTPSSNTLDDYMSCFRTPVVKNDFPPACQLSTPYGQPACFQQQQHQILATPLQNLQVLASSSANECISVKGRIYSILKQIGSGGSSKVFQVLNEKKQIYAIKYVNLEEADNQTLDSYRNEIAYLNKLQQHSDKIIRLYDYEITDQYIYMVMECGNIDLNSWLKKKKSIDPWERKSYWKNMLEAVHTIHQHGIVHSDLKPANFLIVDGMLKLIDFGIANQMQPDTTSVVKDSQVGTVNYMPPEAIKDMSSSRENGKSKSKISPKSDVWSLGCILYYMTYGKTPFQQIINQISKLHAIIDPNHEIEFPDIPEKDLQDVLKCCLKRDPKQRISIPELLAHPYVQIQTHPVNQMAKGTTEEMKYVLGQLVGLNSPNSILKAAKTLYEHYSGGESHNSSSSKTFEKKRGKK

- solubility ([1]; aqueous buffer, Acetate buffer, pH 4.5): 0.02 mg/mL
- solubility ([1]; aqueous buffer, Phosphate buffer, pH 6.7): 30 mg/mL
- solubility ([1]; aqueous with cosolvent or surfactant or cyclodextrin, NaCl,0.9%/DMSO/Tween 20): 30.2 mg/mL
- solubility ([1]; fassgf or other biorelevant, SFaGF, pH 1.6): 30.5 mg/mL
- solubility ([1]; organic solvent or mixture, PEG300): 4.17 mg/mL
- solubility ([1]; saline or isotonic, Sodium chloride 0.9% w/v): 30.5 mg/mL
- solubility ([1]; FaSSIF, pH 6.5): 29.7 mg/mL
- solubility ([1]; FeSSIF, pH 5): 10.9 mg/mL
- solubility ([1]; Water, deionised): 30.2 mg/mL
- Chemical degradation after storage [2]: no evidence of chemical degradation
- Hydration after storage [2]: no evidence
- Form modification after storage (XRPD) ([2]; FIG. 3): No evidence of form modification
- Change in appearance after storage ([2]; loose screw top vials): No change in appearance
- Water uptake/loss ([3]; DVS, 0 to 90% RH, 25° C.): 4.03%
- Water uptake/loss as equivalents of water ([3]; DVS, 0 to 90% RH, 25° C.): about 1.5 equivalents of water
- Flow of the solid post DVS ([3]; post DVS and exposure to 90% RH): free flowing
- Form change post DVS (XRPD) ([3]; post DVS at 0% RH and at 90% RH, FIG. 5): no evidence of form change
- pH of the aqueous mixture ([4]; Acetate buffer, pH 4.5): 4.25
- pH of the aqueous mixture ([4]; FaSSIF, pH 6.5): 2.07
- pH of the aqueous mixture ([4]; FeSSIF, pH 5): 2.36
- pH of the aqueous mixture ([4]; NaCl,0.9%/DMSO/Tween 20): 2.13
- pH of the aqueous mixture ([4]; Phosphate buffer, pH 6.7): 2.38
- pH of the aqueous mixture ([4]; SFaGF, pH 1.6): 1.72
- pH of the aqueous mixture ([4]; Sodium chloride 0.9% w/v): 1.88
- pH of the aqueous mixture ([4]; Water, deionised): 1.91
Structure (SMILES): CCOc1cc(-c2nncn2C)ccc1Nc1ncc2cc(C)nc(NCC(C)(C)C)c2n1 [N2-(2-ethoxy-4-(4-methyl-4H-1,2,4-triazol-3-yl)phenyl)-6-methyl-N8-neopentylpyrido[3,4-d]pyrimidine-2,8-diamine]
- DVS profile (reversibility, hysteresis) ([3]; 0-90% RH, 25° C., FIG. 4): reversible water uptake over the humidity range and no hysteresis

Structure (SMILES): CCOc1cc(-c2nncn2C)ccc1Nc1ncc2cc(C)nc(NCC(C)(C)C)c2n1 [compound I, N2-(2-ethoxy-4-(4-methyl-4H-1,2,4-triazol-3-yl)phenyl)-6-methyl-N8-neopentylpyrido[3,4-d]pyrimidine-2,8-diamine]
- MPS1 kinase inhibitory activity (MPS1 kinase): potent
